Laboratory results as given in PubChem BioAssay (NCI).
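Five concentrations, 48 hours, 96-well plates. At the GI50, growth is halved. Definition used: TGI = concentration required for complete inhibition of growth.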

Tests used:
Test in all cases: inhibition of tumour cell growth, NCI panel, 48 h
A549 NSCLC = tested on: A549 NSCLC
HCT-15 colon = tested on: HCT-15 colon
HOP-62 NSCLC = tested on: HOP-62 NSCLC
LOX IMVI melanoma = tested on: LOX IMVI melanoma
M14 melanoma = tested on: M14 melanoma
MALME-3M melanoma = tested on: MALME-3M melanoma
MDA-MB-231 breast = tested on: MDA-MB-231 breast
PC-3 prostate = tested on: PC-3 prostate
SN12C renal = tested on: SN12C renal
UO-31 renal = tested on: UO-31 renal

SMILES: O=C1/C(=C/c2cccs2)CCC/C1=C\c1cccs1
- GI50 (A549 NSCLC): 68.3 µM
- TGI (A549 NSCLC): > 100 µM
- GI50 (HCT-15 colon): > 100 µM
- TGI (HCT-15 colon): > 100 µM
- GI50 (HOP-62 NSCLC): 21.9 µM
- TGI (HOP-62 NSCLC): 49.2 µM
- GI50 (LOX IMVI melanoma): > 100 µM
- TGI (LOX IMVI melanoma): > 100 µM
- GI50 (M14 melanoma): > 100 µM
- TGI (M14 melanoma): > 100 µM
- GI50 (MALME-3M melanoma): > 48.8 µM
- TGI (MALME-3M melanoma): > 100 µM
- GI50 (MDA-MB-231 breast): 44.6 µM
- TGI (MDA-MB-231 breast): > 100 µM
- GI50 (PC-3 prostate): 37.7 µM
- TGI (PC-3 prostate): > 100 µM
- GI50 (SN12C renal): > 100 µM
- TGI (SN12C renal): > 100 µM
- GI50 (UO-31 renal): > 42.7 µM
- TGI (UO-31 renal): > 85.7 µM

SMILES: C[C@H]1[C@@H](OCC(CO[C@H]2O[C@@H]3O[C@@]4(C)CC[C@H]5[C@H](C)CC[C@@H]([C@H]2C)[C@@]35OO4)=NOCC(=O)O)OC2O[C@@]3(C)CC[C@H]4[C@H](C)CC[C@@H]1[C@@]24OO3 (stereo not given in full)
- GI50 (A549 NSCLC): 0.0865 µM
- TGI (A549 NSCLC): 15.9 µM
- GI50 (HCT-15 colon): < 0.01 µM
- TGI (HCT-15 colon): 0.891 µM
- GI50 (HOP-62 NSCLC): 0.229 µM
- TGI (HOP-62 NSCLC): 21.7 µM
- GI50 (LOX IMVI melanoma): < 0.01 µM
- TGI (LOX IMVI melanoma): 13.3 µM
- GI50 (M14 melanoma): 0.205 µM
- TGI (M14 melanoma): 18.8 µM
- GI50 (MALME-3M melanoma): < 0.0245 µM
- GI50 (MDA-MB-231 breast): 0.12 µM
- TGI (MDA-MB-231 breast): 2.41 µM
- GI50 (PC-3 prostate): < 0.01 µM
- TGI (PC-3 prostate): 13.5 µM
- GI50 (SN12C renal): 0.0215 µM
- TGI (SN12C renal): 1.02 µM
- GI50 (UO-31 renal): 0.0968 µM
- TGI (UO-31 renal): 11.3 µM

SMILES: Cn1c(=O)c2[nH]c(COc3ccc(C(C)(C)C)cc3)nc2n(C)c1=O
- GI50 (A549 NSCLC): 18.9 µM
- TGI (A549 NSCLC): > 100 µM
- GI50 (HCT-15 colon): 19.9 µM
- TGI (HCT-15 colon): > 100 µM
- GI50 (HOP-62 NSCLC): 35.4 µM
- TGI (HOP-62 NSCLC): > 100 µM
- GI50 (LOX IMVI melanoma): 19.9 µM
- TGI (LOX IMVI melanoma): > 100 µM
- GI50 (M14 melanoma): 15 µM
- TGI (M14 melanoma): 41.4 µM
- GI50 (MALME-3M melanoma): 18.2 µM
- TGI (MALME-3M melanoma): 58.8 µM
- GI50 (MDA-MB-231 breast): 41.4 µM
- TGI (MDA-MB-231 breast): > 100 µM
- GI50 (PC-3 prostate): 6.11 µM
- TGI (PC-3 prostate): 53.3 µM
- GI50 (SN12C renal): 33.4 µM
- TGI (SN12C renal): > 100 µM
- GI50 (UO-31 renal): 13.6 µM
- TGI (UO-31 renal): 89.5 µM

SMILES: CC#CC(=O)N1CCC[C@H]1c1nc(-c2ccc(C(=O)Nc3ccccn3)cc2)c2c(N)nccn12
- GI50 (A549 NSCLC): > 79.1 µM
- TGI (A549 NSCLC): > 100 µM
- GI50 (HCT-15 colon): > 72.3 µM
- TGI (HCT-15 colon): > 100 µM
- GI50 (HOP-62 NSCLC): > 100 µM
- TGI (HOP-62 NSCLC): > 100 µM
- GI50 (LOX IMVI melanoma): 98.5 µM
- TGI (LOX IMVI melanoma): > 100 µM
- GI50 (M14 melanoma): 56.5 µM
- TGI (M14 melanoma): > 100 µM
- GI50 (MALME-3M melanoma): 36.2 µM
- TGI (MALME-3M melanoma): > 100 µM
- GI50 (MDA-MB-231 breast): 28.1 µM
- TGI (MDA-MB-231 breast): > 100 µM
- GI50 (PC-3 prostate): > 84.8 µM
- TGI (PC-3 prostate): > 100 µM
- GI50 (SN12C renal): 47.6 µM
- TGI (SN12C renal): > 100 µM
- GI50 (UO-31 renal): 32.1 µM
- TGI (UO-31 renal): > 100 µM

SMILES: COc1ccccc1-n1c(SCc2cc(OC)c(OC)c(OC)c2)nc2ccc(Cl)cc2c1=O
- GI50 (A549 NSCLC): 2.87 µM
- TGI (A549 NSCLC): > 100 µM
- GI50 (HCT-15 colon): 1.46 µM
- TGI (HCT-15 colon): > 100 µM
- GI50 (HOP-62 NSCLC): 9.4 µM
- TGI (HOP-62 NSCLC): > 100 µM
- GI50 (LOX IMVI melanoma): 5.16 µM
- TGI (LOX IMVI melanoma): > 100 µM
- GI50 (M14 melanoma): 2.22 µM
- TGI (M14 melanoma): > 100 µM
- GI50 (MALME-3M melanoma): 8.76 µM
- TGI (MALME-3M melanoma): > 100 µM
- GI50 (MDA-MB-231 breast): 4.24 µM
- TGI (MDA-MB-231 breast): > 100 µM
- GI50 (PC-3 prostate): 2.65 µM
- TGI (PC-3 prostate): > 100 µM
- GI50 (SN12C renal): 7.81 µM
- TGI (SN12C renal): > 100 µM
- GI50 (UO-31 renal): 8.52 µM
- TGI (UO-31 renal): > 100 µM

SMILES: C=C1C(C)C2C(Cc3ccccc3)NC(=O)C23C(OC(C)=O)/C=C/C(C)(O)CC(C)C/C=C/C3C1O (stereo not given)
- TGI (A549 NSCLC): > 100 µM
- TGI (HCT-15 colon): > 100 µM
- TGI (HOP-62 NSCLC): 3.08 µM
- TGI (LOX IMVI melanoma): 19.2 µM
- TGI (M14 melanoma): > 100 µM
- TGI (MALME-3M melanoma): > 94.4 µM
- TGI (MDA-MB-231 breast): > 100 µM
- GI50 (PC-3 prostate): 15.8 µM
- TGI (PC-3 prostate): > 100 µM
- TGI (SN12C renal): > 100 µM
- TGI (UO-31 renal): 1.1 µM
